# Earlier results as cited in patent US20200306292A1, “METHOD FOR TREATING ACUTE HYPOVOLEMIA” (Wonder Spray, LLC, priority 2019, published 2020).
# Assays:
# f2 RNA = conditions: naked f2 RNA compared with RNA in intact phage
# [1] = inhalation
# E. coli [2] = conditions: (2.6 ppm) HOCl, within 5 minutes
# E. coli [3] = conditions: 50 mM (2.6 ppm) HOCl, within 5 minutes
compound,measurement,setting,value
"OCl [HOCl, hypochlorous acid]",inactivation of naked f2 RNA,f2 RNA,inactivated naked f2 RNA at the same rate as RNA in intact phage
same,adverse effects on inhaling the aerosolized form,[1],no adverse effects
same,growth of E. coli,E. coli [2],completely inhibited
same,inhibiting the DNA synthesis,E. coli [3],ninety-six
